Measurements reported in patent US20240024333A1, “USE OF SMALL MOLECULE FAK ACTIVATORS TO PROMOTE MUCOSAL HEALING” (Regents of the University of Minnesota, priority 2020, published 2024).
Entries after “also recorded” stand apart in the source; their conditions may differ. Read-outs that look alike come from different tables or passages of the source.

Legend:
Caco-2 cells = experiment: Caco-2 monolayer wound closure assay; assay type: cell-based, human; settings: for monolayer wound closure / epithelial sheet migration (in words): in vitro, 24 hours
Description: Caco-2 cells were seeded at 75-80% confluence into collagen I coated 6-well plates. When the cells reached 100% confluence, wounds were made in the monolayers with non-barrier autoclaved tips. Wound images were captured using an inverted light microscope (OLYMPUS CK2, Center Valley, PA) at 0 hours and 24 hours after treatment with DMSO or small molecules. Wound areas were measured with Image J software.

FAK = molecular target: T1, FAK (Homo sapiens, UniProt Q05397); experiment: Cell-based FAK-Tyr-397 activation (Western blot, Caco-2 cells); settings: for FAK activation / FAK-Tyr-397 phosphorylation (in words): vs. DMSO vehicle control; for FAK-Tyr-397/FAK fold change: Cell-based FAK-Tyr-397 activation
T1 construct: endogenous in cells; host or cells: Caco-2 (human, ATCC)
Description: Human Caco-2 cells were from ATCC (Manassas, VA) and maintained in Dulbecco's Modified Essential Eagle's Medium supplemented with 10% FBS as described by us previously 25. 80-90% confluent Caco-2 cells were seeded into cell culture plates pacificated with 1% heat inactivated bovine serum albumin to prevent adhesion and avoid adhesion-associated background FAK activation. Suspended cells were then treated with DMSO (0.1%) or small molecules for 1 hour before harvesting for Western blotting.
Cells were lysed and protein concentration was determined via bicinchoninic acid protein assay (Thermo Fisher, Rockford, IL). […] Images were taken using a LICOR-Odyssey-Fc imaging system (LI-COR Biosciences, Lincoln, NE).

Pyk2 = molecular target: T2, Pyk2 (Homo sapiens, UniProt Q14289); experiment: Pyk2 activation in intact cells; assay type: cell-based
T2 construct: endogenous in cells; host or cells: Caco-2

Src = molecular target: T3, Src (Homo sapiens, UniProt P12931); experiment: Src activation in intact cells; assay type: cell-based
T3 construct: endogenous in cells; host or cells: Caco-2

[1] = test system: intestinal mucosal ulcers; experiment: Intestinal mucosal healing in vivo (model not given); parameters: species or system mice; settings: mouse
[2] = over 8 weeks; cited from earlier work
Plasma protein binding = assay type: in vitro ADME
Text: (§1) The most successful molecules underwent in vitro ADMET assays, including mouse and human metabolic stability, solubility (pH 7.4), Caco-2 (permeability), and log D determination. We will evaluate lead candidates for drug-like properties, including aqueous solubility (PBS buffer, pH 7.4), pKa, lipophilicity, chemical stability at pH 1 (the pH of the stomach), pH 6 (small intestine), A-B partitioning (octanol-PBS buffer, pH 7.4), liver microsomal stability as an indication of potential first-pass metabolism (microsomes from mouse and humans), substrate potential for isoforms of human P450 such as CYP3A4, cell permeability (Caco-2 cells), hERG toxicity (cell lines), mutagenesis, and plasma protein binding (mouse & human). […]. Computed physical properties that correlate with good oral bioavailability and cell permeability will be calculated for new compounds throughout the optimization process and will […] also influence lead compound selection as will ligand efficiency (LE) and lipophilic efficiency (LLE). Molecules will be administered by gavage to mice at 30 mg/kg, and we will measure plasma levels at 2 and 4 hours. The most successful molecules in this regard (with the highest levels at 2 and 4 hours) may be further modified by developing combinations of modifications at different parts of the molecule.

Human plasma stability = assay type: in vitro ADME; settings: at 6 h
Solubility = assay type: physicochemical
Text: as §1

Mini-Ames = experiment: Mini-Ames
Text: as §1

[3] = mouse, in vivo; for course of plasma levels after enteral dosing (in words): 10 mg/kg
CYP 2D6 = CYP 2D6 (Homo sapiens, UniProt P10635); experiment: CYP 2D6 inhibition; assay type: in vitro ADME
Text: as §1

[4] = B/P ratio and blood-brain barrier crossing; assay type: in vivo; settings: for blood-brain barrier crossing (in words): in vivo
CYP 2C19 = CYP 2C19 (Homo sapiens, UniProt P33261); experiment: CYP 2C19 inhibition; assay type: in vitro ADME
Text: as §1

CYP 2C9 = CYP 2C9 (Homo sapiens, UniProt P11712); experiment: CYP 2C9 inhibition; assay type: in vitro ADME
Text: as §1

hERG = hERG (Homo sapiens, UniProt Q12809); experiment: hERG toxicity; assay type: cell-based
Text: as §1

[5] = test system: ischemic ileal mucosal ulcers; experiment: Ischemic ileal ulcer model (acetic-acid-soaked discs on serosa); assay type: in vivo, mice; settings: for ischemic ulcer healing (in words): mice, 40: 30 mg/kg/day by osmotic minipump, 4 days, 30 mg/kg/day
[6] = test system: SH-SY5Y human neuronal cells; experiment: Cytotoxicity in SH-SY5Y cells; assay type: cell-based
FAK 35 kD kinase domain = FAK 35 kD kinase domain (Homo sapiens, UniProt Q05397); experiment: In vitro kinase assay with purified FAK kinase domain; settings: FIG. 5
[7] = test system: IMR-90 human pulmonary fibroblasts; experiment: Cytotoxicity in IMR-90 cells; assay type: cell-based; settings: for Cytotoxicity (LD50): IMR90
log D determination = assay type: physicochemical; settings: pH 7.4
Text: as §1

mice [8] = settings: mouse, in vivo
in vivo = settings: mouse
[9] = Cytotoxicity (cells not named); assay type: cell-based
mice [10] = experiment: Tolerability and toxicity in mice

T1 sequence (Q05397 whole entry): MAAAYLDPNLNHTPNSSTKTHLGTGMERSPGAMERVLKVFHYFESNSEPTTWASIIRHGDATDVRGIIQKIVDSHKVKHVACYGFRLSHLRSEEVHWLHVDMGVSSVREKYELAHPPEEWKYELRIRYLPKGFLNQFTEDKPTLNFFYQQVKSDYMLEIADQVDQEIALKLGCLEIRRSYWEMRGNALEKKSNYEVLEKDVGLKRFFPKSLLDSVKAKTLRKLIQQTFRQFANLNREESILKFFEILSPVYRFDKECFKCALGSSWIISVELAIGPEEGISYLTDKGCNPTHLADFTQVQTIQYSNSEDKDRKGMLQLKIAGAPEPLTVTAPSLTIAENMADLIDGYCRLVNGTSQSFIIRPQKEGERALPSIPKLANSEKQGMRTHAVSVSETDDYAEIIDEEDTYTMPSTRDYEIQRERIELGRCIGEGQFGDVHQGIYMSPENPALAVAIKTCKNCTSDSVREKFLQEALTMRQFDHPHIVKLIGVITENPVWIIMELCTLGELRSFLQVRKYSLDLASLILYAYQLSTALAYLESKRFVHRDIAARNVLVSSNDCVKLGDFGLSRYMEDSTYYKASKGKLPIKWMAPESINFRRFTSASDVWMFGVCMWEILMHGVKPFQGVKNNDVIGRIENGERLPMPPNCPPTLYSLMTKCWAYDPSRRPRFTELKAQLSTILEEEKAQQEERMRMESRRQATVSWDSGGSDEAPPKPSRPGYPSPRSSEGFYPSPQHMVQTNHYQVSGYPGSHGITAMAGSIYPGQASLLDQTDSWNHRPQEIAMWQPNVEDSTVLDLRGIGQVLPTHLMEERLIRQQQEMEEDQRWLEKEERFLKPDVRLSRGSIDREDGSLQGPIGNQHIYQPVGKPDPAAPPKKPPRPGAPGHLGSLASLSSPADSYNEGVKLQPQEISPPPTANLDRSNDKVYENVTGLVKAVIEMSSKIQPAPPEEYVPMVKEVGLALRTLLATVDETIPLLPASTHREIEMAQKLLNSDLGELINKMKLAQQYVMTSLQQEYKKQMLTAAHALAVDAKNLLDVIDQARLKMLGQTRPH
T2 sequence (Q14289 whole entry): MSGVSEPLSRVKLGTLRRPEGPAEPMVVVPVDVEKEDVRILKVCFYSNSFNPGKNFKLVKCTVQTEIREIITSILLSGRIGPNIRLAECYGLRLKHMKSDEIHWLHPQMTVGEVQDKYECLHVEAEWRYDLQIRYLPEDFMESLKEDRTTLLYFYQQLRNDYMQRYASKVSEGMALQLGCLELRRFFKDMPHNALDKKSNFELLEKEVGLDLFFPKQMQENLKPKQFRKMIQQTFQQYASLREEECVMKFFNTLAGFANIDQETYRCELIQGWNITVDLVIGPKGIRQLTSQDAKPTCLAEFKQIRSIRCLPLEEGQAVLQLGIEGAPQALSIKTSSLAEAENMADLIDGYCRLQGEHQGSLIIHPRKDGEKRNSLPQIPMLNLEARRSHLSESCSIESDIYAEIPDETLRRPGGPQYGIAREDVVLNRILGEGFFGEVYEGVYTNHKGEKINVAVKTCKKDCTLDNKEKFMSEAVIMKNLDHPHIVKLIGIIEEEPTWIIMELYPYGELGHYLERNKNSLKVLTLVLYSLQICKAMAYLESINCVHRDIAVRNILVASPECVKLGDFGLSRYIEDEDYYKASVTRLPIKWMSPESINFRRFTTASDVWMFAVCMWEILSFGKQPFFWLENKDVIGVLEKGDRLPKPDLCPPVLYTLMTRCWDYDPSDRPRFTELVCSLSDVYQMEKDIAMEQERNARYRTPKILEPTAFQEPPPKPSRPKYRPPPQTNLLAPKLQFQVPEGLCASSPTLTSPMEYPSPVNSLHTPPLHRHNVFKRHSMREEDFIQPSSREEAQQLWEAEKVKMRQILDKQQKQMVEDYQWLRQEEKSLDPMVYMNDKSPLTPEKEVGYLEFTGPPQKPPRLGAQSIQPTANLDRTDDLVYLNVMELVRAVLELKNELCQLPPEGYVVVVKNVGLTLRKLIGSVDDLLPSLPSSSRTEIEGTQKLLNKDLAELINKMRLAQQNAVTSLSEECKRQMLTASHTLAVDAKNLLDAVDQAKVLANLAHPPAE
T3 sequence (P12931 whole entry): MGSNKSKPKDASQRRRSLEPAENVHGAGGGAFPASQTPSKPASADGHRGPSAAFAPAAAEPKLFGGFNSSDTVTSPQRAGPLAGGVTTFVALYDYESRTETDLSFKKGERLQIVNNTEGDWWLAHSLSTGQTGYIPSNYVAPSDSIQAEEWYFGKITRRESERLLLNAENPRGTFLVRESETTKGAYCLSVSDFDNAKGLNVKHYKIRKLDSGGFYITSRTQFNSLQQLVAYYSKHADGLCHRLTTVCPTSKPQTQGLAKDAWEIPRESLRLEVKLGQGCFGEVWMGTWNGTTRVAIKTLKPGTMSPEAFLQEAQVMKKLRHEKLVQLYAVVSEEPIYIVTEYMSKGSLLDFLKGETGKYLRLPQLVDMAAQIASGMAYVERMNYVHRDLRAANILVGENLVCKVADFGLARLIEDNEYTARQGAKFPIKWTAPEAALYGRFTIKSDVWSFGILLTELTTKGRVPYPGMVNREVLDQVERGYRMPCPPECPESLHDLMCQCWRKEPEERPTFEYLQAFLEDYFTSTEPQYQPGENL
Chain of hERG (Q12809 whole entry): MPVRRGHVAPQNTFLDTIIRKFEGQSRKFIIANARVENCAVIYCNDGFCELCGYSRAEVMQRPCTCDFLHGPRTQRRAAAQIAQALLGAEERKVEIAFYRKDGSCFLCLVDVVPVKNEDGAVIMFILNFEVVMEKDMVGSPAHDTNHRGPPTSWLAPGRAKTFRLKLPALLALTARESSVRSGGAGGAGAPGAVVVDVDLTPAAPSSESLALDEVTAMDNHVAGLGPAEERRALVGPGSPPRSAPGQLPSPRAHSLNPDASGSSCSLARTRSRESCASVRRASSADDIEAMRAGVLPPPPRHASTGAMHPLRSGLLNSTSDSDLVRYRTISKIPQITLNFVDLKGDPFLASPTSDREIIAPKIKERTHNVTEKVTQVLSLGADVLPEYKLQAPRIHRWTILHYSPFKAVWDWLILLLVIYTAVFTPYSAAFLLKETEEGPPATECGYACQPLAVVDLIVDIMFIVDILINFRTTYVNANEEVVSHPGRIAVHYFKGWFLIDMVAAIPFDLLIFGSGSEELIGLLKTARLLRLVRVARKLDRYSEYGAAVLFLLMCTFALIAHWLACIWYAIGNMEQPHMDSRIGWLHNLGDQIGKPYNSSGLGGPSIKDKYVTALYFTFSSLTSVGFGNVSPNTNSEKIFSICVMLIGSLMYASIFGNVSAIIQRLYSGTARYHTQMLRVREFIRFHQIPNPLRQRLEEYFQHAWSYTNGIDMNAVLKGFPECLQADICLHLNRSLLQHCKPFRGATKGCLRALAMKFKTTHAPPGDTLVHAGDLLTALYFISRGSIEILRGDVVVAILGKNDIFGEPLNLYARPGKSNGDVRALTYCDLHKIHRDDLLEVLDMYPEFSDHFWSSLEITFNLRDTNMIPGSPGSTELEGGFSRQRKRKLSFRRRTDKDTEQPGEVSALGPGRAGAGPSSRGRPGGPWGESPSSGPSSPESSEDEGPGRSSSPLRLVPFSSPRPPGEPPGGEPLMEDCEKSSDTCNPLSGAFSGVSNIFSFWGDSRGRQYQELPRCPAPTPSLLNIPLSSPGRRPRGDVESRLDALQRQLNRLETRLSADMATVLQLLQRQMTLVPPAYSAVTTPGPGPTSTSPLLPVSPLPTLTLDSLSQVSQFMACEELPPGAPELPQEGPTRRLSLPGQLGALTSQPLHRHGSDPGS
Chain of CYP 2D6 (P10635 whole entry): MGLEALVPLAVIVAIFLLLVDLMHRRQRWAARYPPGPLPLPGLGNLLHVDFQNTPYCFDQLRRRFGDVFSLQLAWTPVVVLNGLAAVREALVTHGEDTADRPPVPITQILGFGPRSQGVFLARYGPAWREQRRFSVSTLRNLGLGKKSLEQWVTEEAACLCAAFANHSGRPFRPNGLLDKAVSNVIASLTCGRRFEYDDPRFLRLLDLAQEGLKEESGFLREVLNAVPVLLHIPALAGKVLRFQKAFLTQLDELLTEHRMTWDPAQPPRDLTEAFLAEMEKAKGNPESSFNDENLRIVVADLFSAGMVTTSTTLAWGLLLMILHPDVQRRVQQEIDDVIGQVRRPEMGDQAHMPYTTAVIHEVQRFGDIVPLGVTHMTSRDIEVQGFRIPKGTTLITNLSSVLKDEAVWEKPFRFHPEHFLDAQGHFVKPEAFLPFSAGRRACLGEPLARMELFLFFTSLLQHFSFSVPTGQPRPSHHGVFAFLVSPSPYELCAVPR
Chain of FAK 35 kD kinase domain (Q05397 422-680 limits assumed): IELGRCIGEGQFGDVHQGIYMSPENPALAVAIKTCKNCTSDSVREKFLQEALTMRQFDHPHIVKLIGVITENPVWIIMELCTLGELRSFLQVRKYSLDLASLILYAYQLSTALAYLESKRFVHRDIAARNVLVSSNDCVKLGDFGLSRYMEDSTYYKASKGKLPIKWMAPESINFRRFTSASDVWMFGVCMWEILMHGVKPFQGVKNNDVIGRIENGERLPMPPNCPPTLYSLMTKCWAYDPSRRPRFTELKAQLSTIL
Chain of CYP 2C19 (P33261 whole entry): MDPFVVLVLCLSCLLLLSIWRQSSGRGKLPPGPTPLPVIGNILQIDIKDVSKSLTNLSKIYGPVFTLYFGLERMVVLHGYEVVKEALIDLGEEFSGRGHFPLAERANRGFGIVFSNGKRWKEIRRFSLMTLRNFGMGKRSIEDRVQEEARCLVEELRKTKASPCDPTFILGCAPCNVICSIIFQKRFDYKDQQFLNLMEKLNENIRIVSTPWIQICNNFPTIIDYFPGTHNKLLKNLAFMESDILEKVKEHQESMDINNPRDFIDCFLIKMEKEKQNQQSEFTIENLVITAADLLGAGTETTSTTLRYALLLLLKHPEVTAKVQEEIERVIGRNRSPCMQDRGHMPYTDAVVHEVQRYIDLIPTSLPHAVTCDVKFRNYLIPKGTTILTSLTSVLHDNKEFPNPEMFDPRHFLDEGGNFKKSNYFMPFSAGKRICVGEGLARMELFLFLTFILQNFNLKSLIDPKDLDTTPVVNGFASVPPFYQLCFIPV

## O=C(Nc1cc(C(F)(F)F)ccc1N1CCOCC1)N1CCCC1C1CCCCC1 (centres unmarked) [Compound 21]
Caco-2 cells
  monolayer wound closure / epithelial sheet migration (in words): promote the healing of intestinal epithelial wounds in vitro
FAK
  concentration level of FAK activation (in words): nanomolar to picomolar levels
  FAK activation / FAK-Tyr-397 phosphorylation (in words): increased; also recorded: stimulate FAK phosphorylation at remarkably low concentrations

## COc1ccc(C2CCCN2C(=O)Nc2cc(C(F)(F)F)ccc2N2CCOCC2)cc1 (centres unmarked) [Compound 9]
Pyk2; intact cells
  Pyk2 activation (in words): activating neither
Src; intact cells
  Src activation (in words): activating neither
Caco-2 cells
  monolayer wound closure / epithelial sheet migration (in words): stimulated monolayer wound closure
[1]
  intestinal mucosal healing in vivo (in words): stimulated
FAK
  concentration as low as which FAK is activated: 10 nM
  FAK activation / FAK-Tyr-397 phosphorylation (in words): increased FAK-Tyr 397 phosphorylation

## COc1ccc(C2CCCN2C(=O)CC(NC(N)=O)c2ccccc2Cl)cc1OC (centres unmarked) [Compound 10]
FAK
  concentration as low as which FAK is activated: 10 nM

## CCCCC(C)(O)C/C=C/[C@H]1[C@H](O)CC(=O)[C@@H]1CCCCCCC(=O)OC (mixture of isomers) [Misoprostol]
[2]
  serious side effects: 8%

## O=C(Nc1cc(F)ccc1N1CCOCC1)N1CCCC1c1ccncc1 (centres unmarked) [Compound 25]
FAK
  FAK activation / FAK-Tyr-397 phosphorylation (in words): does not impair activity

## O=C(Nc1cc(C(F)(F)F)ccc1N1CCOCC1)N1CCCC1C1CCCCC1 (centres unmarked) [Compound 36]
FAK
  FAK activation / FAK-Tyr-397 phosphorylation (in words): seemed to activate FAK

## O=C(Nc1cc(C(F)(F)F)ccc1N1CCOCC1)N1CCCC1c1ccccc1 (centres unmarked) [Compound 37]
FAK
  FAK activation / FAK-Tyr-397 phosphorylation (in words): seemed to activate FAK

## O=C(Nc1cc(C(F)(F)F)ccc1N1CCOCC1)N1CCCC1c1ccncc1 (centres unmarked) [Compound 24]
Pyk2
  Selectivity against relative off-targets: no Pyk2 activation at multiple of FAK activation: activation at >1000 × × FAK activation
Plasma protein binding; plasma
  fraction unbound: 0.0949
Human plasma stability
  Human plasma stability: 98.62% at 6 h
Src
  Selectivity against relative off-targets: no Src activation at multiple of FAK activation: activation at >1000 × × FAK activation
Caco-2 cells
  concentration as low as which in vitro wound closure is stimulated: 100 pM
Solubility
  water solubility / need of DMSO (in words): required DMSO solubilization; also recorded: somewhat less insoluble
Solubility; PBS buffer, pH 7.4, aqueous buffer
  solubility: 252 µM
Mini-Ames
  Mini-Ames: negative
[3]; po
  oral / enteral absorption (in words): readily orally
CYP 2D6
  IC50: 10.1 µM
[4]; 2 h
  B/P ratio: B/P ratio <0.15
[4]
  blood-brain barrier crossing (in words): cross the blood-brain barrier
CYP 2C19
  IC50: 5.43 µM
CYP 2C9
  IC50: 4.5 µM
hERG
  hERG: hERG = 2.958 μM
[5]
  ischemic ulcer healing (in words): accelerated; also recorded: can heal intestinal mucosal ulcers
[5]; × 4 days
  Mouse therapeutic dose: <30 mg/kg/day
[6]
  Cytotoxicity (LD50): >1 mM
FAK 35 kD kinase domain
  concentration of maximal effect in in vitro kinase assay: about 0.3 nM
[7]
  Cytotoxicity (LD50): >1 mM
Log D determination
  log D7.4: log D7.4 = 3.12
[1]
  intestinal mucosal healing in vivo (in words): promoting small bowel mucosal wound healing
Mice [8]
  neurotoxicity (in words): no neurotoxicity was detected
  tolerability / gross toxicity in mice (in words): without obvious toxicity
In vivo; T1/2
  half-life: ~1.5 h
FAK
  concentration level of FAK activation (in words): considerably lower concentration than 45
  FAK activation / FAK-Tyr-397 phosphorylation (in words): seemed to activate FAK
FAK; Caco-2 cells
  concentration as low as which FAK is activated: 0.1 nM
FAK; in vitro, assay not named in Table 4, read-out: FAK potency EC50
  EC50: < 0.01 µM

## O=C(Nc1cc(C(F)(F)F)ccc1C1CCOCC1)N1CCCC1c1ccccc1 (centres unmarked) [Compound 14]
FAK
  FAK-Tyr-397/FAK fold change: 1.0 fold change
  FAK activation / FAK-Tyr-397 phosphorylation (in words): reduced activation

## O=C(Nc1cc(C(F)(F)F)ccc1N1CCOCC1)N1CCCC1c1ccc(O)cc1 (centres unmarked) [Compound 49]
FAK
  FAK-Tyr-397/FAK fold change: 1.1 fold change

## O=C(Nc1ccccc1N1CCOCC1)N1CCCC1c1ccncc1 (centres unmarked) [Compound 46]
FAK
  FAK-Tyr-397/FAK fold change: 1.1 fold change
  FAK activation / FAK-Tyr-397 phosphorylation (in words): did not induce FAK phosphorylation

## CCN(C(=O)Nc1ccccc1N1CCOCC1)C(C)c1ccccc1 (centres unmarked) [Compound 48]
FAK
  FAK-Tyr-397/FAK fold change: 1.1 fold change
  FAK activation / FAK-Tyr-397 phosphorylation (in words): did not induce FAK phosphorylation

## CN(C)C(CNC(=O)Nc1cc(C(F)(F)F)ccc1N1CCOCC1)c1ccncc1 (centres unmarked) [Compound 40]
Pyk2; at 10 μM
  Pyk2 activation (in words): does not activate
Plasma protein binding
  Plasma protein binding: 91.39%
Human plasma stability
  Human plasma stability: 88.56% at 6 h
Src; at 10 μM
  Src activation (in words): does not activate
Caco-2 cells; 100 nM
  wound closure after two 2-hour exposures vs full 24 hours of exposure: equivalent stimulation of wound closure
Caco-2 cells; 100 nM, medium changed back after exposure
  wound closure at 24 hours after three-hour exposure vs 24 hours exposure: same effect as 24 hours
Caco-2 cells; hydroxyurea present
  wound closure with proliferation blocked by hydroxyurea (in words): still stimulates Caco-2 monolayer wound closure
Caco-2 cells
  monolayer wound closure / epithelial sheet migration (in words): stimulates wound closure; also recorded: promotes epithelial monolayer wound healing; also recorded: dose-responsive stimulation
Solubility
  water solubility / need of DMSO (in words): does not require DMSO; also recorded: truly water soluble
[9]
  cytotoxicity (in words): no cytotoxicity at 10000× higher than effective doses; also recorded: neither cytotoxic nor carcinogenic
Mini-Ames
  Mini-Ames: negative
[3]
  course of plasma levels after enteral dosing (in words): decline by two hours
[3]; 2 h
  course of plasma levels after enteral dosing (in words): decrease by 2 hours
[3]; 1 h
  plasma level after 240 mg/kg as multiple of therapeutic plasma level: ~6*10^6 ×
[4]
  blood-brain barrier crossing (in words): cross the blood-brain barrier
hERG; human
  hERG: hERG > 30 μM
[5]
  ischemic ulcer healing (in words): much smaller ulcers; also recorded: acceleration of healing
[6]
  Cytotoxicity (LD50): SYSY (LD50)~1 mM
  concentration at which cytotoxicity is displayed: 1000 µM
  cytotoxic concentration as multiple of the 100 pM that activates FAK: 10^7 ×
[7]
  Cytotoxicity (LD50): SYSY (LD50)~1 mM
[7]; IMR-90
  concentration at which cytotoxicity is displayed: 1000 µM
  cytotoxic concentration as multiple of the 100 pM that activates FAK: 10^7 ×
Log D determination
  log D7.4: log D7.4 = 2.87
Mice [8]
  neurotoxicity (in words): no neurotoxicity was detected
  renal/hepatic histology, creatinine, ALT (in words): normal
Mice [8]; 120 mg/kg
  serum chemistries (in words): normal
In vivo; 1.25 mg/kg
  concentration at 4 days: 26 ng/mL
In vivo; T1/2
  half-life: ~1.5 h
In vivo; plasma half-life
  half-life: 1.5 h
Mice [10]
  lethal single dose: 480 mg/kg

## COc1ccc(CC(C)C(=O)Nc2ccc(N(C)C)cc2C)cc1 (centres unmarked) [Compound 19]
FAK
  FAK activation / FAK-Tyr-397 phosphorylation (in words): does not enhance FAK activation

## COc1ccc(C(CNC(=O)Nc2cc(C(F)(F)F)ccc2N2CCOCC2)N(C)C)cc1 (centres unmarked) [Compound 31]
FAK
  FAK activation / FAK-Tyr-397 phosphorylation (in words): seemed to activate FAK
